Experimental data taken from US10882856B2 (BeiGene, Ltd., priority 2017, dated 2021).
Counter-ions that a name gives are not always drawn.

Tests used:
IDO1 [1] = target: T1, IDO1 (Homo sapiens, UniProt P14902); test: Hela cell-based IDO1 assay; conditions: Hela cells
How it was run: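 Kynurenine was measured at 480 nm in trichloroacetic acid-deproteinised supernatant after adding 2% 4-(dimethylamino)benzaldehyde. This supernatant came from HeLa cells seeded at 8000 per well in 96-well plates in phenol red-free DMEM with 10% FBS and, from 4 hours after seeding, exposed for 48 hours at 37 °C, 5% CO2 to DMSO-diluted compound dilutions, IFN-γ (final 100 ng/mL) and 0.4 mM L-Trp. The resulting data were fitted with a four-parameter logistic model in XLfit. Potency was taken from those fits.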

[2] = target: T2, cellular TDO2 in HEK293-TDO2 cells (Homo sapiens, UniProt P48775); test: 293-TDO2 cell-based assay (Kyn colorimetric); conditions: 48 hours of incubation
T2 construct: expressed in transfected cells; host or cells: HEK293 (ATCC), stably transfected
How it was run: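 Kyn formed from L-Trp was read colorimetrically at 480 nm (TCA deproteinisation, then 2% 4-(dimethylamino)benzaldehyde). Compounds were added to 293-TDO2 cells 4 h post-seeding and left 48 h at 37° C. A four-parameter logistic model gave IC50 values.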

IDO1 [3] = target: T1, IDO1; test: IDO1 enzymatic assay; assay type: biochemical; set-up: His tag (N); made in house; host or cells: E. coli; conditions: read-out: Enzyme IC50 IDO1
How it was run: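 Recombinant IDO1 carrying an N-terminal His tag and purified from E. coli was used at 50 nM with test compound, 1.3 mM D-tryptophan, 5 mM L-ascorbic acid, methylene blue and 0.4 mg/mL catalase in 50 mM potassium phosphate pH 7.5 containing 0.1% BSA. This mixture was incubated at 24 °C for 1.5 hours, after which N'-formylkynurenine formation was followed continuously at 321 nm for 1 hour and activity was taken as the slope. IC50 was derived from the enzyme activity remaining as compound concentration increased.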

T1 sequence (P14902 whole entry): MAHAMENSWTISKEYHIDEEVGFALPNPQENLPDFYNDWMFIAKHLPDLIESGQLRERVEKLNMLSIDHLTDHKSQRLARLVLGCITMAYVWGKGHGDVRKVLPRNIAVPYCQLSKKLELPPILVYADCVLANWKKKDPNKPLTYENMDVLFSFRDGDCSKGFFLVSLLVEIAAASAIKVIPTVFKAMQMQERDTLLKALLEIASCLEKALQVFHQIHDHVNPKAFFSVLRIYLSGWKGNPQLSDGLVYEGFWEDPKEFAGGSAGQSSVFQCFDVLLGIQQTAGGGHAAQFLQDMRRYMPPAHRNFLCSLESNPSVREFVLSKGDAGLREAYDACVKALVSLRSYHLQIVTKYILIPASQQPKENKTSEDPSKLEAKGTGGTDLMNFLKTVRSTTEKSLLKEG
T2 sequence (P48775 whole entry): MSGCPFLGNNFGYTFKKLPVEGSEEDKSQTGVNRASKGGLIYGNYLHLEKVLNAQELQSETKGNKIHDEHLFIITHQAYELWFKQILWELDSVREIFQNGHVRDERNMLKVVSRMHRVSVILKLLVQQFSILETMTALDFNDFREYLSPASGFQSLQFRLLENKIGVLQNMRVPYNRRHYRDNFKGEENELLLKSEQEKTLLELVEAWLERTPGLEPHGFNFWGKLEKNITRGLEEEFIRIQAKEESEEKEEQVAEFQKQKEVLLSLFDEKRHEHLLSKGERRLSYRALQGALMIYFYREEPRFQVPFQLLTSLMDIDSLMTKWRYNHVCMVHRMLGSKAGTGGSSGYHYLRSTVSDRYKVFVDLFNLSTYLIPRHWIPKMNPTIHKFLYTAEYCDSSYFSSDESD

| Compound | EC50 (IDO1 [1]) | EC50 [2] | IC50 (IDO1 [3]) |
| --- | --- | --- | --- |
| O[C@@H](c1c(C2CC2)ccc2cncn12)[C@H]1CC[C@H](c2ccc3sccc3c2)CC1 (single isomer, unassigned) [Example D133b] | 8.9 µM | > 10 µM | > 10 µM |
| OC(c1c(C2CC2)ccc2cncn12)[C@H]1CC[C@H](c2ccc3ccsc3c2)CC1 (single isomer, unassigned) [Example D134b] | 5.67 µM | > 10 µM | 2.7 µM |
| O[C@@H](c1c(C2CC2)ccc2cncn12)[C@H]1CC[C@H](c2cccc3ccccc32)CC1 (single isomer, unassigned) [Example D135b] | 6.75 µM | > 10 µM | 5.2 µM |
| O[C@@H](c1c(C2CC2)ccc2cncn12)[C@H]1CC[C@H](c2ccc3ccccc3c2)CC1 (single isomer, unassigned) [Example D136b] | 7.19 µM | > 10 µM | > 10 µM |
| COc1ccc([C@H]2CC[C@H](C(O)c3c(C4CC4)ccc4cncn34)CC2)c2ccccc12 (single isomer, unassigned) [Example D139b] | 4.47 µM | > 10 µM | > 10 µM |
| O[C@@H](c1c(C2CC2)ccc2cncn12)[C@H]1CC[C@H](c2cccc3ncccc32)CC1 (single isomer, unassigned) [Example D141b] | 7.58 µM | > 10 µM | 3.8 µM |
| O[C@@H](c1c(C2CC2)ccc2cncn12)[C@H]1CC[C@H](c2cc(F)cc(F)c2)CC1 (single isomer, unassigned) [Example D144b] | 6.41 µM | > 10 µM | 8 µM |
| O[C@@H](c1c(C2CC2)ccc2cncn12)[C@H]1CC[C@H](c2ccc(F)c(F)c2F)CC1 (single isomer, unassigned) [Example D145b] | 9.49 µM | > 10 µM | > 10 µM |
| COc1ccc([C@H]2CC[C@H](C(O)c3c(C4CC4)ccc4cncn34)CC2)c(F)c1 (single isomer, unassigned) [Example D146b] | 4.57 µM | > 10 µM | 2.9 µM |
| COc1ccc([C@H]2CC[C@H]([C@@H](O)c3c(C4CC4)ccc4cncn34)CC2)c(Cl)c1 (single isomer, unassigned) [Example D147b] | 4.5 µM | > 10 µM | > 10 µM |
| COc1ccc([C@H]2CC[C@H](C(O)c3c(C4CC4)ccc4cncn34)CC2)cc1Cl (single isomer, unassigned) [Example D148b, hydrochloride] | 7.01 µM | > 10 µM | > 10 µM |
| O[C@@H](c1c(C2CC2)ccc2cncn12)C1CCC(c2csc3ccccc23)CC1 (single isomer, unassigned) [Example D155b] | 5.63 µM | > 10 µM | 9 µM |
| O[C@@H](c1c(C2CC2)ccc2cncn12)[C@H]1CC[C@H](c2cccc(F)c2)CC1 (single isomer, unassigned) [Example D156b] | 6.99 µM | > 10 µM | > 10 µM |
| O[C@@H](c1c(C2CC2)ccc2cncn12)[C@H]1CC[C@H](c2ccc3ncccc3c2)CC1 (single isomer, unassigned) [Example D157b] | > 10 µM | > 10 µM | > 10 µM |
| CC(C)c1ccc2cncn2c1[C@H](O)[C@H]1CC[C@H](c2ccc(F)cc2)CC1 (single isomer, unassigned) [Example D166b] | 5.21 µM | > 10 µM | > 10 µM |
| CC(C)c1ccc2cncn2c1[C@H](O)[C@H]1CC[C@H](c2cccc(F)c2)CC1 (single isomer, unassigned) [Example D167b] | 2.79 µM | > 10 µM | 9.8 µM |

The next molecules have a lower EC50 (IDO1 [1]) than those just listed; values first:

| EC50 (IDO1 [1]) | EC50 [2] | IC50 (IDO1 [3]) | Compound |
| --- | --- | --- | --- |
| 0.275 µM | > 10 µM | 0.032 µM | OC(c1c(C2CC2)ccc2cncn12)[C@H]1CC[C@H](c2ccc(Cl)cc2F)CC1 (single isomer, unassigned) [Example D131a] |
| 0.113 µM | > 10 µM | 0.021 µM | OC(c1c(C2CC2)ccc2cncn12)[C@H]1CC[C@H](c2cccc(F)c2F)CC1 (single isomer, unassigned) [Example D132a] |
| 2.1 µM | > 10 µM | 1.7 µM | O[C@@H](c1c(C2CC2)ccc2cncn12)[C@H]1CC[C@H](c2ccc(F)c3ccccc32)CC1 (single isomer, unassigned) [Example D137b] |
| 0.443 µM | > 10 µM | 0.033 µM | COc1ccc([C@H]2CC[C@H](C(O)c3c(C4CC4)ccc4cncn34)CC2)c2ccccc12 (single isomer, unassigned) [Example D139a] |
| 1.75 µM | > 10 µM | 1.8 µM | O[C@@H](c1c(C2CC2)ccc2cncn12)[C@H]1CC[C@H](c2ccnc3ccccc32)CC1 (single isomer, unassigned) [Example D140b] |
| 0.052 µM | > 10 µM | 0.023 µM | O[C@H](c1c(C2CC2)ccc2cncn12)[C@H]1CC[C@H](c2cc(F)cc(F)c2)CC1 (single isomer, unassigned) [Example D144a] |
| 0.122 µM | > 10 µM | 0.019 µM | COc1ccc([C@H]2CC[C@H](C(O)c3c(C4CC4)ccc4cncn34)CC2)c(F)c1 (single isomer, unassigned) [Example D146a] |
| 0.198 µM | > 10 µM | 0.02 µM | COc1ccc([C@H]2CC[C@H]([C@H](O)c3c(C4CC4)ccc4cncn34)CC2)c(Cl)c1 (single isomer, unassigned) [Example D147a] |
| 0.08 µM | > 10 µM | 0.017 µM | COc1ccc([C@H]2CC[C@H](C(O)c3c(C4CC4)ccc4cncn34)CC2)cc1Cl (single isomer, unassigned) [Example D148a, hydrochloride] |
| 0.018 µM | > 10 µM | 0.016 µM | O[C@H](c1c(C2CC2)ccc2cncn12)[C@H]1CC[C@H](c2ccnc3ccc(F)cc32)CC1 (single isomer, unassigned) [Example D150a] |
| 1.1 µM | > 10 µM | 1.4 µM | O[C@@H](c1c(C2CC2)ccc2cncn12)[C@H]1CC[C@H](c2ccnc3ccc(F)cc32)CC1 (single isomer, unassigned) [Example D150b] |
| 0.027 µM | > 10 µM | 0.028 µM | OC(c1c(C2CC2)ccc2cncn12)[C@H]1CC[C@H](c2csc3ccccc32)CC1 (single isomer, unassigned) [Example D155a] |
| 0.052 µM | > 10 µM | 0.015 µM | O[C@H](c1c(C2CC2)ccc2cncn12)[C@H]1CC[C@H](c2ccc3ncccc3c2)CC1 (single isomer, unassigned) [Example D157a] |
| 0.014 µM | > 10 µM | 0.026 µM | CC(C)c1ccc2cncn2c1[C@@H](O)[C@H]1CC[C@H](c2ccc(F)cc2)CC1 (single isomer, unassigned) [Example D166a] |
| 0.015 µM | > 10 µM | 0.018 µM | CC(C)c1ccc2cncn2c1[C@@H](O)[C@H]1CC[C@H](c2cccc(F)c2)CC1 (single isomer, unassigned) [Example D167a] |
| 0.025 µM | > 10 µM | 0.017 µM | CC(C)c1ccc2cncn2c1[C@@H](O)[C@H]1CC[C@H](c2cccc(Cl)c2)CC1 (single isomer, unassigned) [Example D168a] |
